Experimental data taken from ChEMBL document CHEMBL1132177, “PTP1B inhibition and antihyperglycemic activity in the ob/ob mouse model of novel 11-arylbenzo[b]naphtho[2,3-d]furans and 11-arylbenzo[b]naphtho[2,3-d]thiophenes” (J Med Chem, 1999).

Legend:
[1] = biological target: Receptor-type tyrosine-protein phosphatase alpha (Homo sapiens, UniProt P18433); assay: The compound was tested in vitro for the inhibitory activity against Protein-tyrosine phosphatase 1 alpha (LRP) (human PTPases.)
[2] = biological target: Dual specificity protein phosphatase 3 (Homo sapiens, UniProt P51452); assay: The compound was tested in vitro for the inhibitory activity against Dual specificity protein phosphatase 3 (SH-PTP1) (human PTPases.)
[3] = biological target: Receptor-type tyrosine-protein phosphatase beta (Homo sapiens, UniProt P23467); assay: The compound was tested in vitro for the inhibitory activity against Protein-tyrosine phosphatase beta (SH-PTP1) (human PTPases.)
[4] = biological target: Tyrosine-protein phosphatase non-receptor type 6 (Homo sapiens, UniProt P29350); assay: The compound was tested in vitro for the inhibitory activity against Protein-tyrosine phosphatase 1C (SH-PTP1) (human PTPases.)
[5] = tested on: Mus musculus; assay: The compound was tested in vivo(ob/ob mouse) for intestinal absorption against insulin, at a concentration of 100 mg/kg/day.; format: functional
[6] = biological target: T1, Tyrosine-protein phosphatase non-receptor type 1 (Homo sapiens, UniProt P18031); assay: The compound was tested in vitro for the inhibitory activity against Protein-tyrosine phosphatase 1B (human PTPases.)
T1 sequence (P18031 whole entry): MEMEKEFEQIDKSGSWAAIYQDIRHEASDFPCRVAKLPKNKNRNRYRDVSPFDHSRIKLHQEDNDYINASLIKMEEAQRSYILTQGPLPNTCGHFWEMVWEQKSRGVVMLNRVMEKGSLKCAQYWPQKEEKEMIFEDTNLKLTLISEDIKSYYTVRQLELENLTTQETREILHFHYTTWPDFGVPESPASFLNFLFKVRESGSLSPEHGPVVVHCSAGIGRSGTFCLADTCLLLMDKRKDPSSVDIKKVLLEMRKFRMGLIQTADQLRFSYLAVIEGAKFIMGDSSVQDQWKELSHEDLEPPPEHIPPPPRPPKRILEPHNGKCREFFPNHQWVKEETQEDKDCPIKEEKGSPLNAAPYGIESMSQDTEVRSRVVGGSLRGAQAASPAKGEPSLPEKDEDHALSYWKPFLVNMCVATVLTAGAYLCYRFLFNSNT

[7] = tested on: Mus musculus; assay: The compound was tested in vivo(ob/ob mouse) for intestinal absorption against plasma glucose at a concentration of 100 mg/kg/day.; format: functional
[8] = biological target: T2, Receptor-type tyrosine-protein phosphatase C (Homo sapiens, UniProt P08575); assay: The compound was tested in vitro for the inhibitory activity against CD45 antigen (human PTPases.)
T2 sequence (P08575 whole entry): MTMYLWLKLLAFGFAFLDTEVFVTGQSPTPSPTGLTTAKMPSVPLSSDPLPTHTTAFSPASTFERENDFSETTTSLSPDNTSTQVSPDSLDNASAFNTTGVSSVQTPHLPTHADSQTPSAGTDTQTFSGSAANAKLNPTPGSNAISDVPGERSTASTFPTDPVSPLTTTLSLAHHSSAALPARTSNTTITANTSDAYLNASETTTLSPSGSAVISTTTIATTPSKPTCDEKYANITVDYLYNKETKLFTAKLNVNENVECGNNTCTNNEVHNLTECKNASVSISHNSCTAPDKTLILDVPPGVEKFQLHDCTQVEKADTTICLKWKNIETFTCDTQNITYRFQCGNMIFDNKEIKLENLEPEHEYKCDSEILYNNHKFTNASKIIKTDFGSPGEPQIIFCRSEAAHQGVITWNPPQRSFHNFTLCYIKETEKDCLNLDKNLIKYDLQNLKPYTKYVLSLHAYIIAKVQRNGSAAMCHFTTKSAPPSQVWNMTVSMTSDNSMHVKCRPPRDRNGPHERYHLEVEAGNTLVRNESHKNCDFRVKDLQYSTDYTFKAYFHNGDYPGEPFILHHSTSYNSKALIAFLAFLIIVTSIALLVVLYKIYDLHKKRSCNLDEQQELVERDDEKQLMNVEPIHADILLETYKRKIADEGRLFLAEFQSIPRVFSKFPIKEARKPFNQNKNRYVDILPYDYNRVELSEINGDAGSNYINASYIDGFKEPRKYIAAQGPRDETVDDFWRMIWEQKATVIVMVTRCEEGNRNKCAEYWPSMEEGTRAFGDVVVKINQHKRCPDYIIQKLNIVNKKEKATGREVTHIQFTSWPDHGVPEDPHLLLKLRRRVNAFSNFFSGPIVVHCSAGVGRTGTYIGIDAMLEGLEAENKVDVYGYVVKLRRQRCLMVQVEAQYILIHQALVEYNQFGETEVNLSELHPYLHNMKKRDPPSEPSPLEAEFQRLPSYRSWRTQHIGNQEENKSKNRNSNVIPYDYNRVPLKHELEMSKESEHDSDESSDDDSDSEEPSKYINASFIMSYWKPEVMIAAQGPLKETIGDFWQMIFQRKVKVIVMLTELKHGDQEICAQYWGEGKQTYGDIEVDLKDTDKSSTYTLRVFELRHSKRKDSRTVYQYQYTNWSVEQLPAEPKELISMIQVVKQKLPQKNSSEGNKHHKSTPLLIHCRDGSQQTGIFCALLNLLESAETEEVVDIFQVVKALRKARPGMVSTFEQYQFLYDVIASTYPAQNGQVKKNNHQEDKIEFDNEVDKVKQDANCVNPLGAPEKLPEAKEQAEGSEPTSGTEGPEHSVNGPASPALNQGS

[9] = biological target: T3, Tyrosine-protein phosphatase non-receptor type 12 (Homo sapiens, UniProt Q05209); assay: The compound was tested in vitro for the inhibitory activity against Protein tyrosine phosphatase PEST (SH-PTP1) (human PTPases.)
T3 sequence (Q05209 whole entry): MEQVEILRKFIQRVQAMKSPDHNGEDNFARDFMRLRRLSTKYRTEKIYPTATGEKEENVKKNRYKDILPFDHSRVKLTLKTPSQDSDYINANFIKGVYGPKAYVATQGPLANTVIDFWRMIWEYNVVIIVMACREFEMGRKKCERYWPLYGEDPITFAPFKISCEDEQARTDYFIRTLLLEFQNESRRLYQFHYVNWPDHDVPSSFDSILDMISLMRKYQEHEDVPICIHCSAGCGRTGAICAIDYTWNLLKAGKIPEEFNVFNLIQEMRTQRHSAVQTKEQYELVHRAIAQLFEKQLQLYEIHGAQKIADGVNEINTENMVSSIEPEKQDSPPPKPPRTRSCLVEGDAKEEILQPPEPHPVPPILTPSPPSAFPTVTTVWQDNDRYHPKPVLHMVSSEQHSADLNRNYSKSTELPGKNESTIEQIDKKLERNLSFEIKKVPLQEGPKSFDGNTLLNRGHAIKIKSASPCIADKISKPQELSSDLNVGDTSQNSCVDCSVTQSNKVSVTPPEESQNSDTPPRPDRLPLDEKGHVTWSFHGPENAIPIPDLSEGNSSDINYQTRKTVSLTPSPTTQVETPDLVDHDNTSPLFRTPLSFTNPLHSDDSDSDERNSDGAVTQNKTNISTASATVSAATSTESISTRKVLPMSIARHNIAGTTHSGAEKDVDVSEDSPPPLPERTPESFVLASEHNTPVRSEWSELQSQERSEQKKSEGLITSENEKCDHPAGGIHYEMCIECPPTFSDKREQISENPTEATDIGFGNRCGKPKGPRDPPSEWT

[10] = The compound was tested in vitro for the inhibitory activity against human HePTP360 (Hematopoietic protein tyrosine phosphatase)
[11] = tested on: Mus musculus; assay: The compound was tested in vivo(ob/ob mouse) for intestinal absorption against plasma glucose at a concentration of 50 mg/kg/day.; format: functional
[12] = tested on: Mus musculus; assay: The compound was tested in vivo(ob/ob mouse) for intestinal absorption against insulin, at a concentration of 75 mg/kg/day.; format: functional
[13] = tested on: Mus musculus; assay: The compound was tested in vivo(ob/ob mouse) for intestinal absorption against plasma glucose at a concentration of 25 mg/kg/day.; format: functional
[14] = tested on: Mus musculus; assay: The compound was tested in vivo(ob/ob mouse) for intestinal absorption against plasma glucose at a concentration of 75 mg/kg/day.; format: functional
[15] = tested on: Mus musculus; assay: The compound was tested in vivo(ob/ob mouse) for intestinal absorption against insulin, at a concentration of 50 mg/kg/day.; format: functional
[16] = tested on: Mus musculus; assay: The compound was tested in vivo(ob/ob mouse) for intestinal absorption against insulin, at a concentration of 10 mg/kg/day.; format: functional
[17] = tested on: Mus musculus; assay: The compound was tested in vivo(ob/ob mouse) for intestinal absorption against plasma glucose at a concentration of 10 mg/kg/day.; format: functional
[18] = tested on: Mus musculus; assay: The compound was tested in vivo(ob/ob mouse) for intestinal absorption against insulin, at a concentration of 25 mg/kg/day.; format: functional
[19] = tested on: Mus musculus; assay: The compound was tested in vivo(ob/ob mouse) for intestinal absorption against plasma glucose at a concentration of 90 mg/kg/day.; format: functional
[20] = tested on: Mus musculus; assay: The compound was tested in vivo(ob/ob mouse) for intestinal absorption against insulin, at a concentration of 90 mg/kg/day.; format: functional
[21] = biological target: T1, Tyrosine-protein phosphatase non-receptor type 1; assay: The compound was tested in vitro for the inhibitory activity against hPTP1B (human PTPases.)
[22] = tested on: Mus musculus; assay: The compound was tested in vivo(ob/ob mouse) for intestinal absorption against insulin, at a concentration of 5 mg/kg/day.; format: functional
[23] = tested on: Mus musculus; assay: The compound was tested in vivo(ob/ob mouse) for intestinal absorption against plasma glucose at a concentration of 1 mg/kg/day. (i.p.); format: functional; settings: route intraperitoneal
[24] = tested on: Mus musculus; assay: The compound was tested in vivo(ob/ob mouse) for intestinal absorption against plasma glucose at a concentration of 5 mg/kg/day.; format: functional
[25] = biological target: T1, Tyrosine-protein phosphatase non-receptor type 1; assay: The compound was tested for inhibitory activity against recombinant Protein-tyrosine phosphatase 1B (human).
[26] = tested on: Mus musculus; assay: The compound was tested in vivo(ob/ob mouse) for intestinal absorption against plasma glucose at a concentration of 200 mg/kg/day.; format: functional
[27] = tested on: Mus musculus; assay: The compound was tested in vivo(ob/ob mouse) for intestinal absorption against insulin, at a concentration of 200 mg/kg/day.; format: functional

Receptor-type tyrosine-protein phosphatase alpha, sequence (P18433 whole entry): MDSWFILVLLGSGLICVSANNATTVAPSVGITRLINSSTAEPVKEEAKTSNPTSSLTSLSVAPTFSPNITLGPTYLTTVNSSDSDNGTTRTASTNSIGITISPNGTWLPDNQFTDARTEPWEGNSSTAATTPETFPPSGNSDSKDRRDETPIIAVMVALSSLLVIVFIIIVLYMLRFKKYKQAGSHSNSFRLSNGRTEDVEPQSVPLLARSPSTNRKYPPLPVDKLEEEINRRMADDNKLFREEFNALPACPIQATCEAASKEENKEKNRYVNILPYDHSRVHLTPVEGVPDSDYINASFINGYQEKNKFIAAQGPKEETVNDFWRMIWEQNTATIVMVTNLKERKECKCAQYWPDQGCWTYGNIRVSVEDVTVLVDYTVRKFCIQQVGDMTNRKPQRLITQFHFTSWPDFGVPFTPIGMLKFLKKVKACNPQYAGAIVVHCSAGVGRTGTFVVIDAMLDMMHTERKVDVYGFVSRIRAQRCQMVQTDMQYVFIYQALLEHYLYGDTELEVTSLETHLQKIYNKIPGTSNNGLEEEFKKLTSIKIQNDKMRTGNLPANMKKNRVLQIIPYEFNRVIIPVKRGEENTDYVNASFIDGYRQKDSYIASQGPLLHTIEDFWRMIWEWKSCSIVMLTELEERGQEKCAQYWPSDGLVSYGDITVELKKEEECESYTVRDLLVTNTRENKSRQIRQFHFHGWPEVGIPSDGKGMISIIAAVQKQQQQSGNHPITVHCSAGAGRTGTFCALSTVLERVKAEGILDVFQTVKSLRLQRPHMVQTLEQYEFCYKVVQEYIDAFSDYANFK
Tyrosine-protein phosphatase non-receptor type 6, sequence (P29350 whole entry): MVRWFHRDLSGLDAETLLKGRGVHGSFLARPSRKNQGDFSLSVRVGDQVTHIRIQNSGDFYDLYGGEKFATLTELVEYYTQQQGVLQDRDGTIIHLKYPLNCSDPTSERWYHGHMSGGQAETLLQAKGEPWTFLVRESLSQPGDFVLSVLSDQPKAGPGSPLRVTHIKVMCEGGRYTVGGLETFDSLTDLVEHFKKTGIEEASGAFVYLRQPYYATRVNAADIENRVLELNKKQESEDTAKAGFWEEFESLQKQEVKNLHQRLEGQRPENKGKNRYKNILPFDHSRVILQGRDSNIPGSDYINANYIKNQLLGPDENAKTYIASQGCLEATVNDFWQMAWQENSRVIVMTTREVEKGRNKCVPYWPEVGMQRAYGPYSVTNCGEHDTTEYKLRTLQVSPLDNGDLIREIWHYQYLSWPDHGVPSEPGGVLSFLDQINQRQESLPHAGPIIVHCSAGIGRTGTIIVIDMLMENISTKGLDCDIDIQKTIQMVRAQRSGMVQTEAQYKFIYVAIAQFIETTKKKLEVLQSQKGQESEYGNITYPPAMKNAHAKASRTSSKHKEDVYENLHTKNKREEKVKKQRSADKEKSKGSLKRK
Receptor-type tyrosine-protein phosphatase beta, sequence (P23467 whole entry): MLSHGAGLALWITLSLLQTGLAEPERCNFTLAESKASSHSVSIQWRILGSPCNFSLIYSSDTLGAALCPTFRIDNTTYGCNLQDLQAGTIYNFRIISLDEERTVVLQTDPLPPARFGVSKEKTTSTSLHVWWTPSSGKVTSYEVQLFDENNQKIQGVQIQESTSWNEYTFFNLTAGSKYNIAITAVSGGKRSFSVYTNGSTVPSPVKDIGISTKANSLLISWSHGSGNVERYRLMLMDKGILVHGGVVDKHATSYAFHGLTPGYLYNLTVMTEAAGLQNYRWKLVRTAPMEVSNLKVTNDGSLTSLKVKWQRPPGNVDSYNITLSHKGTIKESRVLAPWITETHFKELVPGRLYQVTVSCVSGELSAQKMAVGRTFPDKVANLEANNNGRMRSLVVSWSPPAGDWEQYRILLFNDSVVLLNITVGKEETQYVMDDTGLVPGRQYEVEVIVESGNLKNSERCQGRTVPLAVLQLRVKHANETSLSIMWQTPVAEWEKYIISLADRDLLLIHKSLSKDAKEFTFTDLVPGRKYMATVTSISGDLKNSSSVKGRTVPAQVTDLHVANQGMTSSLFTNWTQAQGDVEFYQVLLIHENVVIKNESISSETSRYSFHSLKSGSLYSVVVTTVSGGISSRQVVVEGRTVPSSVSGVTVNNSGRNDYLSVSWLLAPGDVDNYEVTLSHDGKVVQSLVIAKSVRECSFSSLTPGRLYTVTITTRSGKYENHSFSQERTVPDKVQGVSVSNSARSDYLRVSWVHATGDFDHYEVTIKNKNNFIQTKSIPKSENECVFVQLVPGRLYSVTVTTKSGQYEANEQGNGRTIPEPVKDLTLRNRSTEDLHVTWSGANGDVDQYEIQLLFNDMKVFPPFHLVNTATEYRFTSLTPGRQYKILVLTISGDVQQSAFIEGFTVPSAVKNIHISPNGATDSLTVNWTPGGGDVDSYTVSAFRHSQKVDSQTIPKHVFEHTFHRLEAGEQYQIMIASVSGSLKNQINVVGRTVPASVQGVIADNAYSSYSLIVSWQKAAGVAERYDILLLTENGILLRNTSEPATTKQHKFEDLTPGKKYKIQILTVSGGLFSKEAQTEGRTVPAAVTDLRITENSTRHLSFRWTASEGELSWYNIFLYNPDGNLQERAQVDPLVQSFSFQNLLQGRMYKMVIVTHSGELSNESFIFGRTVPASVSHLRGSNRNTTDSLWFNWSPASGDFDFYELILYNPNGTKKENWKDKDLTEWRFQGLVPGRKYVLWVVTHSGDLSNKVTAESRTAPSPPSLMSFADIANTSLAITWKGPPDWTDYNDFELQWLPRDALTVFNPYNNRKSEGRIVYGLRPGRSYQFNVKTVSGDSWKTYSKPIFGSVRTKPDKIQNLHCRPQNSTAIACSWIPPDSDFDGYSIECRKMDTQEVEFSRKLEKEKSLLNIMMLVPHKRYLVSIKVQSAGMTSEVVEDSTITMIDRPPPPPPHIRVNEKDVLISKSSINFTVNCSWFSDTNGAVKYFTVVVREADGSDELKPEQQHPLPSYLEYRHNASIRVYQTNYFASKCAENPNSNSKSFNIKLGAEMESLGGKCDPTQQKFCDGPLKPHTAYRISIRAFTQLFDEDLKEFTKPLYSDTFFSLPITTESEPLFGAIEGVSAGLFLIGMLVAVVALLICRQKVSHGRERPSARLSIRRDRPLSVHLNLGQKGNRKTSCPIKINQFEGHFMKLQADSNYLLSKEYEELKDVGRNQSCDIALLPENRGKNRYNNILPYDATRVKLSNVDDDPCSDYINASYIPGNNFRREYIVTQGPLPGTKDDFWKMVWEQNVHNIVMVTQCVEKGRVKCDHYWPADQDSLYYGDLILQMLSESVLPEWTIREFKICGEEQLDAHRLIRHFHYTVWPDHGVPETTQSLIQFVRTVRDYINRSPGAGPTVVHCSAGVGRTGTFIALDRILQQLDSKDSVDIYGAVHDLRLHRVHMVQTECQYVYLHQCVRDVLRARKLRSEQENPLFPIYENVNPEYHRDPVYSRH
Dual specificity protein phosphatase 3, sequence (P51452 whole entry): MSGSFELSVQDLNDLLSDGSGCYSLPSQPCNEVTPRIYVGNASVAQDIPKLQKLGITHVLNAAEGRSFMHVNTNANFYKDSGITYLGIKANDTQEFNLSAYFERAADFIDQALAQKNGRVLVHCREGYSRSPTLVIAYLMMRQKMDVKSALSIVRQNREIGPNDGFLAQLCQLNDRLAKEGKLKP

Molecule `O=C(O)COc1c(Br)cc(-c2c3ccccc3c(Br)c3sc4ccccc4c23)cc1Br` has an IC50 [1] of 17000 nM, an IC50 [2] of 7900 nM and an IC50 [3] of 600 nM. It also gave an IC50 [4] of 5000 nM, a Decrease [5] of 61% and an IC50 [6] of 390 nM. The Decrease [7] was 23%, the IC50 [8] was 9100 nM and the IC50 [9] was 2300 nM. It also gave an IC50 [10] of 2700 nM.
Molecule `Oc1c(Br)cc(-c2c3ccccc3c(Br)c3sc4ccccc4c23)cc1Br` has a Decrease [5] of less than 15% and a Decrease [7] of less than 15%.
In the case of `O=C(O)[C@@H](Cc1ccccc1)Oc1c(Br)cc(-c2c3ccccc3c(Br)c3sc4ccccc4c23)cc1Br`, the Decrease [11] is reported as 35%, the Decrease [12] is reported as 85% and the Decrease [13] is reported as 26%. The Decrease [14] was 50%, the Decrease [15] was 71% and the Decrease [16] was less than 15%. It also gave a Decrease [17] of 26% and a Decrease [18] of 72%.
`O=P(O)(O)COc1c(Br)cc(-c2c3ccccc3c(Br)c3sc4ccccc4c23)cc1Br` showed a Decrease [19] of less than 15% and a Decrease [20] of less than 15%.
Molecule `O=C(O)[C@@H](Cc1ccccc1)Oc1c(Br)cc(-c2c3ccccc3c(Br)c3oc4ccccc4c23)cc1Br` has an IC50 [1] of 13000 nM, an IC50 [2] of 11000 nM and an IC50 [3] of 500 nM. For the same molecule, the IC50 [21] was 80 nM, the IC50 [4] was 9000 nM and the Decrease [22] was 56%. It also gave a Decrease [13] of 42%, a Decrease [23] of 38% and an IC50 [8] of 6300 nM. The IC50 [9] was 2200 nM, the Decrease [16] was 69% and the Decrease [17] was 29%. The Decrease [18] was 86%, the Decrease [24] was less than 15% and the IC50 [10] was 2100 nM.
Molecule `O=C(O)[C@@H](CCN1C(=O)c2ccccc2C1=O)Oc1c(Br)cc(-c2c3ccccc3c(Br)c3sc4ccccc4c23)cc1Br` has an inhibition in vivo at 100 mg/kg/day [5] of less than 15%, an IC50 [25] of 11 nM and an inhibition in vivo at 100 mg/kg/day [7] of less than 15%.
With `CC1(COc2ccc(CC3SC(=O)NC3=O)cc2)CCCCC1` (centres undefined) [CIGLITAZONE] the inhibition in vivo at 100 mg/kg/day [5] was 39% and the inhibition in vivo at 100 mg/kg/day [7] was 43%.
Work on `Cc1c(C)c2c(c(C)c1O)CCC(C)(COc1ccc(CC3SC(=O)NC3=O)cc1)O2` (centres undefined) [TROGLITAZONE] yielded an inhibition in vivo at 200 mg/kg/day [26] of 34% and an inhibition in vivo at 200 mg/kg/day [27] of less than 15%.
